Data published in US20030073815A1, “Adrenic acid receptor and uses thereof” (priority 2001, published 2003).
“Also recorded” adds a separate entry of the source.

Columns and labels:
[1] = system: oxygenation of arachidonic acid; settings: cited from earlier work
PFI-011 = molecular target: T1, PFI-011 (Homo sapiens, UniProt Q8TDT2); assay: Functional assay measuring intracellular calcium mobilisation (FLIPR); type: cell-based; settings: PFI-011-transfected cells compared to mock-transfected cells; Fluo3, FLIPR
T1 construct: expressed in transfected cells
T1 sequence (Q8TDT2 whole entry): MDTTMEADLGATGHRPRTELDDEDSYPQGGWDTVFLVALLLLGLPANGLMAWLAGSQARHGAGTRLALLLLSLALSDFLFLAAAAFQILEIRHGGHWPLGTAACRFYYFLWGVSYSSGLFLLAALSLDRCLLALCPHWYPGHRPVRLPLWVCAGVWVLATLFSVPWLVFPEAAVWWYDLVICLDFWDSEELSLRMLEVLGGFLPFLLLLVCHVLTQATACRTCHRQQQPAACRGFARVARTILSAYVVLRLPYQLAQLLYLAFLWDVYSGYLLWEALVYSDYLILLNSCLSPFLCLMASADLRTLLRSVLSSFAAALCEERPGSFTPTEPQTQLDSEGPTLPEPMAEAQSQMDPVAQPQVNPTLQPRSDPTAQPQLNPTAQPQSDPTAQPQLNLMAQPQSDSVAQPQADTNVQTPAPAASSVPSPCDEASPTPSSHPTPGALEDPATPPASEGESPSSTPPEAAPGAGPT
Procedure: 5×10^6 cells of a suitable host cell line, chosen to express a low number of endogenous receptors (e.g. HEK293 or CHO-K1) and engineered to stably express certain Gα proteins (e.g. mouse Gα15 (Wilkie, T. M. et al (1991) Proc. Natl. Acad. Sci. 88, 10049-10053), a chimeric Gql5/Gql5 α-subunit, or human Gα16 (Amatruda, TT 3rd et al (1991) Proc. Natl. Acad. Sci. 88, 5587-5591)), were transiently transfected with 7.5 μg of cDNA encoding PFI-011 in a suitable mammalian cell expression vector, or vector alone, using Lipofectamine Plus® reagent (Gibco BRL) as per the manufacturer's protocol. […]
Fluorescence Imaging Plate Reader (FLIPR®) technology was employed as a means to detect activation of PFI-011 by various potential GPCR agonists.
Cells were transfected as described in Example 3. […] The FLIPR® processing involved reading the fluorescence for all samples for 2 minutes; during this time the fluorescence baseline was determined for 10 seconds. The desired amount of compounds (i.e. potential GPCR agonists) was then automatically transferred to the wells and the fluorescence was continuously monitored for the remainder of the time. […]
Compounds capable of acting as agonists for the receptor were identified by them causing a transient rise in fluorescence, and therefore in intracellular calcium, in the cells.

rabbits = settings: cited from earlier work

SMILES: CCCCC/C=C\C/C=C\C/C=C\C/C=C\CCCCCC(=O)O [adrenic acid]
- oxygenation of arachidonic acid; synthesis of prostaglandins PGF2, PGE2 & PGD2 [1]: inhibit the oxygenation of arachidonic acid
- response of PFI-011-expressing cells (fluorescence change over time, transient rise in intracellular calcium) (PFI-011): response of PFI-011-expressing cells to adrenic acid; also recorded: responds to adrenic acid
- blood pressure and renal flow (rabbits): reduce blood pressure and renal flow
